The values that follow come from article PMC7796184, “Phytochemical Characterization, In Vitro Anti-Inflammatory, Anti-Diabetic, and Cytotoxic Activities of the Edible Aromatic Plant; Pulicaria jaubertii” (Molecules, 2021).

In one assay the test system is U937 human monocytes. In words: Histamine release assay (EIA kit) in PMA-treated U937 cells. The settings on record: U-937, 20 nM Phorbol Myristate Acetate, 1 h, triplicate, read-out: Histamine release inhibition IC50. Type of assay: cell-based. The method, then:
In accordance with literature, extracts or standard diclofenac (7.81–1000 μg/mL) were added to U937 cells seeded in a 96-well plate in a concentration of 50,000 in presence or absence of 20 nM Phorbol Myristate Acetate. After 1 h, the treated and untreated cell cultures supernatants were collected and centrifuged at 10,000 rpm for 5 min at 4 °C. Then the samples were evaluated for released histamine by a commercially available EIA kit (SPI-Bio, Montigny le Bretonneux, France).

The test system of the next assay is red blood cells (RBCs). In words: Membrane stabilizing activity, hypotonic solution-induced hemolysis of RBCs. In kind it is cell-based, rats. The settings on record: Erythrocyte, 10 min; rat RBCs, hypotonic solution pH 7.4, 10 min; triplicate; read-out: Membrane stabilization IC50 (inhibition of RBCs hemolysis). The method, then: The method was conducted according to the literature. Erythrocyte suspension was prepared by withdrawing blood samples from rats with heparinized syringes through cardiac puncture. Then, phosphate buffer was used to wash blood samples three times with centrifugation after each washing at 3000 rpm for 10 min. […] Control samples were prepared by similar manner without extracts or indomethacin. Afterward, previous mixtures were withstanding for 10 min in room condition and subjected to 10 min centrifugation at 3000 rpm.

Assay [1] relates to prostate carcinoma (PC-3) cell line. In words: cells. Particulars: Homo sapiens, PC-3, read-out: Cytotoxicity IC50.
Procedure: (§1) All cells were obtained from the American Type Culture Collection (ATCC, Rockville, MD, USA) and were cultured on RPMI 1640 medium supplemented with 10% inactivated fetal calf serum and 50 μg/mL gentamycin. The cells were maintained at 37 °C in a humidified atmosphere with 5% CO2 and were sub cultured two to three times a week. Cell viability percentage was calculated by the equation: Cell viability % = Ac/At × 100(5) where Ac = Absorbance obtained from of control cells, At = Absorbance obtained from treated cells.
Assay [2] relates to hepatocarcinoma (HepG-2) cell line. In words: cells. Particulars: Homo sapiens, HepG2, read-out: Cytotoxicity IC50.
Procedure: as §1
The test system of assay [3] is breast carcinoma (MCF-7) cell line. The experiment in a line: cells. Particulars: Homo sapiens, MCF7, read-out: Cytotoxicity IC50.
Procedure: as §1

Molecules are shown by their SMILES. ≈ marks a conversion by molar mass, not a printed value.

With `O=C(O)Cc1ccccc1Nc1c(Cl)cccc1Cl` [Diclofenac], in the assay on U937 human monocytes, the IC50 was 17.9 ± 1.6 µg/mL (≈ 60.6 µM).

Consider `COc1ccc2c(c1)c(CC(=O)O)c(C)n2C(=O)c1ccc(Cl)cc1` [Indomethacin], for which the IC50 with red blood cells (RBCs) worked out at 17 ± 0.72 µg/mL (≈ 47.6 µM).

Turning to `CC[C@]1(O)C[C@@H]2CN(CCc3c([nH]c4ccccc34)[C@@](C(=O)OC)(c3cc4c(cc3OC)N(C)[C@H]3[C@@](O)(C(=O)OC)[C@H](OC(C)=O)[C@]5(CC)C=CCN6CC[C@]43[C@@H]65)C2)C1` [Vinblastine], the results for the IC50 in assay [1], in assay [2] and in assay [3] were 5.5 ± 0.4 µg/mL (≈ 6.78 µM), 4.6 ± 0.17 µg/mL (≈ 5.67 µM) and 4.6 ± 0.18 µg/mL (≈ 5.67 µM), respectively.

Broadly, the IC50 is the concentration that gives 50% inhibition.
